The numbers were not newly measured in US9375441B2, “Lactulose for bowel evacuation” (Cumberland Pharmaceuticals, priority 2011, dated 2016), which cites them from elsewhere.

The structures appear in SMILES notation.

Assay in data set [1]: not given
The source holds these as a separate data set.

Data set [2] deals with patients at increased risk for colorectal cancer.
Data set [3] concerns patients with a history of chronic constipation.

For `OC[C@H]1O[C@@H](O[C@@H]2[C@@H](CO)O[C@](O)(CO)[C@H]2O)[C@H](O)[C@@H](O)[C@H]1O` [lactulose, 4-O-b-D-Galactopyranosyl-D-fructofuranose], the solubility in water entry is “freely soluble”. Moreover, the “state in which oral doses reach the colon” value in data set [1] (no hydrolysing enzyme in human gastrointestinal tissue) is “virtually unchanged”. Moreover, the “absorption from the gastrointestinal tract” value in data set [1] (oral) is reported as “poorly absorbed”. The “patients with diarrhea sometime during the bowel preparation, %” value in data set [2] (12 g lactulose powder once per day from 48 hours before MR colonography) was 38%. Besides, in data set [2] (12 g lactulose powder once per day from 48 hours before MR colonography, low-fiber diet, oral gadolinium contrast), the “patients with diarrhea sometime during the bowel preparation, number” value is on record as 77. The “patients in whom diarrhea occurred just prior to imaging, number” value in data set [2] (of the 77 patients with diarrhea) is on record as 48. Further, the “number of bowel movements per day and number of days on which bowel movements occur” value in data set [3] was “increases”.
